Assay results as given in PubChem BioAssay AID1963858 (Molecular Pharmacology Branch, DTP, NCI, 2024).

Test system: HOP-62 multicell spheroids with HUVEC/MSC, viability
Assay: Anticancer human tumor HOP-62 cell line growth inhibition [KRAS2];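 also: viability read after a week of compound exposure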;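 as to viability, T/C: 100% = DMSO vehicle-treated spheroids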
Conditions: for IC50: curve of first compound; for viability, T/C: stronger effect = lower value
How it was run: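 Combination screen of spheroid viability in tumor-cell co-cultures with endothelial (HUVEC) and mesenchymal stem cell stroma. Each agent was tested in half-log dilutions, topping at clinical Cmax or at 10 microM without a known Cmax.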

[1] = second compound 0.1 µM, first compound 0.0316 µM
[2] = second compound 0.1 µM, first compound 0.1 µM
[3] = second compound 0.1 µM, first compound 0.316 µM
[4] = second compound 0.1 µM, first compound 1 µM
[5] = second compound 0.1 µM, first compound 3.16 µM
[6] = second compound 0.316 µM, first compound 0.0316 µM
[7] = second compound 0.316 µM, first compound 0.1 µM
[8] = second compound 0.316 µM, first compound 0.316 µM
[9] = second compound 0.316 µM, first compound 1 µM
[10] = second compound 0.316 µM, first compound 3.16 µM
[11] = second compound 1 µM, first compound 0.0316 µM
[12] = second compound 1 µM, first compound 0.1 µM
[13] = second compound 1 µM, first compound 0.316 µM
[14] = second compound 1 µM, first compound 1 µM
[15] = second compound 1 µM, first compound 3.16 µM
[16] = second compound 3.16 µM, first compound 0.0316 µM
[17] = second compound 3.16 µM, first compound 0.1 µM
[18] = second compound 3.16 µM, first compound 0.316 µM
[19] = second compound 3.16 µM, first compound 1 µM
[20] = second compound 3.16 µM, first compound 3.16 µM
[21] = second compound 10 µM, first compound 0.0316 µM
[22] = second compound 10 µM, first compound 0.1 µM
[23] = second compound 10 µM, first compound 0.316 µM
[24] = second compound 10 µM, first compound 1 µM
[25] = second compound 10 µM, first compound 3.16 µM

| Structure (SMILES) | IC50 (second compound 0.1 µM) | IC50 (second compound 0.316 µM) | IC50 (second compound 1 µM) | IC50 (second compound 3.16 µM) | IC50 (second compound 10 µM) | viability, T/C [1] | viability, T/C [2] | viability, T/C [3] | viability, T/C [4] | viability, T/C [5] | viability, T/C [6] | viability, T/C [7] | viability, T/C [8] | viability, T/C [9] | viability, T/C [10] | viability, T/C [11] | viability, T/C [12] | viability, T/C [13] | viability, T/C [14] | viability, T/C [15] | also measured |
| --- | --- | --- | --- | --- | --- | --- | --- | --- | --- | --- | --- | --- | --- | --- | --- | --- | --- | --- | --- | --- | --- |
| CC1COCCN1c1cc(-c2ccnn2C)c2ccnc(-c3ccn[nH]3)c2n1 (stereo not given) + CC1OCC2(CCN(c3cnc(Sc4ccnc(N)c4Cl)c(N)n3)CC2)C1N | 0.0398 µM | 0.0358 µM | 0.0218 µM | 0.0146 µM | < 0.01 µM | 56.7% | 23% | 12.7% | 11.5% | 13.7% | 53.2% | 23.8% | 14% | 11.9% | 11.9% | 37% | 20.2% | 13.4% | 10.1% | 8.68% | viability, T/C (second compound 0.1 µM, first compound 0.01 µM): 94.7%; viability, T/C (second compound 0.316 µM, first compound 0.01 µM): 87.3%; viability, T/C (second compound 1 µM, first compound 0.01 µM): 76.6%; viability, T/C (second compound 3.16 µM, first compound 0.01 µM): 59.4%; viability, T/C [16]: 30.6%; viability, T/C [17]: 18.1%; viability, T/C [18]: 11.7%; viability, T/C [19]: 9.08%; viability, T/C [20]: 9.24%; viability, T/C (second compound 10 µM, first compound 0.01 µM): 46.9%; viability, T/C [21]: 26.4%; viability, T/C [22]: 16.8%; viability, T/C [23]: 13.6%; viability, T/C [24]: 11.2%; viability, T/C [25]: 9.36% |
| CCNC(=O)CC1N=C(c2ccc(Cl)cc2)c2cc(OC)ccc2-n2c(C)nnc21 (stereo not given) + CC1OCC2(CCN(c3cnc(Sc4ccnc(N)c4Cl)c(N)n3)CC2)C1N | 0.25 µM | 0.2 µM | 0.136 µM | 0.0508 µM | < 0.0316 µM | 103% | 74.5% | 45.2% | 27.6% | 28.6% | 96.2% | 65.5% | 40.9% | 25.1% | 24.3% | 75.9% | 55.6% | 34.5% | 19.8% | 22.1% | viability, T/C (second compound 0.1 µM, first compound 10 µM): 28.1%; viability, T/C (second compound 0.316 µM, first compound 10 µM): 23.6%; viability, T/C (second compound 1 µM, first compound 10 µM): 19.7%; viability, T/C [16]: 60%; viability, T/C [17]: 35.5%; viability, T/C [18]: 25.9%; viability, T/C [19]: 21.2%; viability, T/C [20]: 16.1%; viability, T/C (second compound 3.16 µM, first compound 10 µM): 15.3%; viability, T/C [21]: 32.4%; viability, T/C [22]: 21.7%; viability, T/C [23]: 18.6%; viability, T/C [24]: 11.5%; viability, T/C [25]: 11.7%; viability, T/C (second compound 10 µM, first compound 10 µM): 9.82% |
